The inhibition is the drop in the measured response relative to a control, in per cent.

Assay [1] can be described thus: Herbicidal activity against broadleaf weeds. The format is functional.
The subject of assay [2] is Poaceae. The experiment in a line: Herbicidal activity against Poaceae (grass) weeds. It is filed as functional, organism-based.
Assay [3] deals with Spinacia oleracea. The experiment in a line: Inhibition of Spinacia oleracea (spinach) chloroplast isoleucyl tRNA synthetase at 1 uM.

The source made the active and inactive calls. The calls are words filed in the database; no cut-off is given here.

In the case of `CCOC(=O)c1cccc(-c2cccc(C/C=C/[C@@H](C)[C@H](C)O)c2)c1`, the result in assay [1] and in assay [2] was inactive. In assay [3], the inhibition entry is “inactive”.
As to `COC(=O)/C=C(\C)Cc1cccc(C/C=C/[C@@H](C)[C@H](C)O)c1`, the outcome in assay [1] and in assay [2] was inactive. In addition, in assay [3], the inhibition entry was “inactive”.
In the case of `CCOC(=O)/C=C(/C)C[C@H]1OC[C@H](C/C=C/[C@@H](C)[C@H](C)O)CO1`, the outcome in assay [1] and in assay [2] was inactive. Besides, the inhibition entry in assay [3] is “inactive”.
On to `CCOC(=O)/C=C(\C)C[C@H]1OC[C@H](C/C=C/[C@@H](C)[C@H](C)O)CO1`, for which the result in assay [1] and in assay [2] was inactive. Besides, in assay [3], the inhibition entry is “inactive”.
In the case of `COC(=O)/C=C(\C)Cc1cccc(C[C@@H]2O[C@H]2[C@@H](C)[C@H](C)O)c1`, the result in assay [1] and in assay [2] was inactive. Besides, the inhibition result in assay [3] is “inactive”.
On to `CCOC(=O)/C=C(\C)C[C@H]1OC[C@@H](C/C=C/[C@@H](C)[C@H](C)O)CO1`, for which the outcome in assay [1] and in assay [2] was inactive. For the same compound, in assay [3], the inhibition entry is “inactive”.
Regarding `COC(=O)/C=C(/C)Cc1cccc(C/C=C/[C@@H](C)[C@H](C)O)c1`, the result in assay [1] and in assay [2] was inactive. The inhibition result in assay [3] was “inactive”.
As for `CCOC(=O)c1cccc(-c2cccc(C[C@@H]3O[C@H]3[C@@H](C)[C@H](C)O)c2)c1`, the result in assay [1] and in assay [2] was inactive. Further, in assay [3], the inhibition result is “inactive”.
Regarding `C/C(=C\C(=O)OCCCCCCCCC(=O)O)C[C@@H]1OC[C@H](C[C@@H]2O[C@H]2[C@@H](C)[C@H](C)O)[C@@H](O)[C@H]1O`, the inhibition in assay [3] was 75%.
Consider `COC(=O)/C=C(/C)Cc1cccc(C[C@@H]2O[C@H]2[C@@H](C)[C@H](C)O)c1`, for which the outcome in assay [1] and in assay [2] was inactive. For the same compound, the inhibition entry in assay [3] was “inactive”.
Turning to `CCOC(=O)c1cccc(-c2cccc(C[C@H]3O[C@@H]3[C@@H](C)[C@H](C)O)c2)c1`, the result in assay [1] and in assay [2] was inactive. In addition, in assay [3], the inhibition entry was “inactive”.
As to `COC(=O)/C=C(/C)Cc1cccc(C[C@H]2O[C@@H]2[C@@H](C)[C@H](C)O)c1`, the result in assay [1] and in assay [2] was inactive. Further, the inhibition entry in assay [3] is “inactive”.
In the case of `COC(=O)/C=C(\C)Cc1cccc(C[C@H]2O[C@@H]2[C@@H](C)[C@H](C)O)c1`, the result in assay [1] and in assay [2] was inactive. Besides, in assay [3], the inhibition result is “inactive”.

Source of the values: ChEMBL document CHEMBL3046851, “Synthesis of analogues of monic acids A and C: Potential herbicides and inhibitors of isoleucyl tRNA synthetase” (Bioorg Med Chem Lett, 1996).
